Data on 16 compounds can be found in US9624229B2, “Pyrimidine-2-amine compounds and their use as inhibitors of JAK kinases” (Rigel Pharmaceuticals, Inc., priority 2008, dated 2017).

Ba/F3 V617F cells, sequence (O60674 whole entry V617F): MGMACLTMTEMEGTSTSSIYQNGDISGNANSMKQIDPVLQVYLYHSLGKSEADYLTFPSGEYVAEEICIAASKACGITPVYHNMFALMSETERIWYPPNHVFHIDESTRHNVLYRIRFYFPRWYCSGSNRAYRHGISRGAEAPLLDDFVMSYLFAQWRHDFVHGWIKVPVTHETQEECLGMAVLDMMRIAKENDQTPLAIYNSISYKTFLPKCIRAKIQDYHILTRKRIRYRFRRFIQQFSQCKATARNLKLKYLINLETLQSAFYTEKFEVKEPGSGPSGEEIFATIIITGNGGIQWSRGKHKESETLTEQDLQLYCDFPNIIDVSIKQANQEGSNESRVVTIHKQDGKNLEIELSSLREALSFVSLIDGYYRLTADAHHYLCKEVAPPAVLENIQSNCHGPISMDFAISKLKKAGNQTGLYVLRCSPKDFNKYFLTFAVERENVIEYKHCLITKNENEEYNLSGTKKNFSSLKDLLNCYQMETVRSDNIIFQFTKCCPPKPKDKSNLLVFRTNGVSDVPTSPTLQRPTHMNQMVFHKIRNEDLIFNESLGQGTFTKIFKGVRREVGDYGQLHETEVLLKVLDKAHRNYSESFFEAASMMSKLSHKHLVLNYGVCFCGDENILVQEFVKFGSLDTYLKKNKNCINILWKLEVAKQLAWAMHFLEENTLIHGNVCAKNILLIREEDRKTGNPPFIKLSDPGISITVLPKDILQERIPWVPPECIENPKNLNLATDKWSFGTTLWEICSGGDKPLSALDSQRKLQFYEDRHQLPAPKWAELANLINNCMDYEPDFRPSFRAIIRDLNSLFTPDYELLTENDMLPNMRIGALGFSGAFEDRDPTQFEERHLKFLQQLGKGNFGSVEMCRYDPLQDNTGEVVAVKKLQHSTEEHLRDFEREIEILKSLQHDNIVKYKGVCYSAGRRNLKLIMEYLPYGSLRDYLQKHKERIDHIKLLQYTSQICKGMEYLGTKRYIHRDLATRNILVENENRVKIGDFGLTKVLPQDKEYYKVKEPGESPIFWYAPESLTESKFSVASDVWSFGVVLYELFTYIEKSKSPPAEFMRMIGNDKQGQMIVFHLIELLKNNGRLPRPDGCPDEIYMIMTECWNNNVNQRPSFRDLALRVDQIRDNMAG

The first experiment deals with Ba/F3 V617F cells (Homo sapiens, UniProt O60674, V617F, cells depend on it). The experiment in a line: Proliferation assay (Cell Titer-Glo, 72 h) utilizing Ba/F3 V617F cells. The class given is cell-based, mouse. The following applies: Ba/F3 V617F cells, proliferation, level of activity given as class symbol, read-out: IC50 (the source's name). In outline:
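Readout is CellTiter-Glo luminescence after 72 h at 37 °C, giving IC50. Cells: Ba/F3 V617F, 1×10^5 cells/mL in RPMI with 10% FBS, treated in duplicate with 3-fold dilution series made from 5 mM DMSO stock, 1:250 in 5% FBS medium, added at 2×.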
On the technique in general: In ATP-based viability assays light output follows the ATP content of the culture.
Take `CN1C[C@@H]2C[C@H]1CN2c1ccc(Nc2nccc(-c3ccc4c(c3)CCCC(=O)N4)n2)cc1C#N` [compound 272, 4-(2-oxo-2,3,4,5-tetrahydro-1H-benzo[b]azepin-7-yl)-N-(3-cyano-4-((1S,4S)-5-methyl-2,5-diazabicyclo[2.2.1]heptan-2-yl)phenyl)pyrimidin-2-amine]: the GI50 is less than 1000 nM. Still for that read-out and setting: in the case of `CCC(=O)N1C[C@@H]2C[C@H]1CN2c1ccc(Nc2nccc(-c3ccc(N4CCOCC4)nc3)n2)cc1C` [compound 196, 4-(6-(morpholin-4-yl)pyridin-3-yl)-N-(3-methyl-4-((1S,4S)-5-ethylcarbonyl-2,5-diazabicyclo[2.2.1]heptan-2-yl)phenyl)pyrimidin-2-amine] it was less than 1000 nM; in that of `Cc1cc(Nc2nccc(-c3ccc(N4C[C@@H](C)O[C@@H](C)C4)nc3)n2)ccc1N1C[C@@H]2C[C@H]1CO2` (relative stereo) [compound 201], less than 1000 nM; in that of `Cc1cc(Nc2nccc(-c3cnc4c(c3)OC(C)(C)C(=O)N4)n2)ccc1N1C[C@@H]2C[C@H]1CN2C(C)C` [compound 246, 4-(2,2-dimethyl-3-oxo-3,4-dihydro-2H-pyrido[3,2-b][1,4]oxazin-7-yl)-N-(3-methyl-4-((1S,4S)-5-(1-methylethyl)-2,5-diazabicyclo[2.2.1]heptan-2-yl)phenyl)pyrimidin-2-amine], less than 1000 nM. On the same count and under the same terms, in the case of `CC1(C)Oc2cc(-c3ccnc(Nc4ccc(C5CC6CC5CN6S(C)(=O)=O)cc4)n3)cnc2NC1=O` (stereo not shown) [compound 226, 4-(2,2-dimethyl-3-oxo-3,4-dihydro-2H-pyrido[3,2-b][1,4]oxazin-7-yl)-N-(4-(2-methylsulfonyl-2-azabicyclo[2.2.1]heptan-5-yl)phenyl)pyrimidin-2-amine] it was 1000 to 10000 nM; in that of `Cc1cc(Nc2nccc(-c3ccc(N4C[C@@H]5C[C@H]4CO5)nc3)n2)ccc1N1C[C@@H]2C[C@H]1CN2S(C)(=O)=O` [compound 264, 4-(6-((1S,4S)-2-oxa-5-azabicyclo[2.2.1]heptan-5-yl)pyridin-3-yl)-N-(3-methyl-4-((1S,4S)-5-(methylsulfonyl)-2,5-diazabicyclo[2.2.1]heptan-2-yl)phenyl)pyrimidin-2-amine], less than 1000 nM.

The same experiment, now with this note: Ba/F3 V617F cells, proliferation, level of activity to inhibit JAK2, read-out: IC50 (the source's name).
On to `Cc1cc(Nc2nccc(-c3ccc(N4C[C@@H]5C[C@H]4CN5C)nc3)n2)ccc1N1CCN(C)CC1` [compound 12, 4-(6-((1S,4S)-5-methyl-2,5-diazabicyclo-[2.2.1]-heptan-2-yl)pyridin-3-yl)-N-(3-methyl-4-(4-methyl-piperazin-1-yl)phenyl)-pyrimidin-2-amine], for which the GI50 was in the range of 1000 to 10000 nM. Still for that read-out and setting: with `Cc1cc(Nc2nccc(-c3ccc(Cc4ccccc4)nc3)n2)ccc1N1CC2(C)CN(C)CC(C)(C1)C2` [compound 90, 4-(6-(benzyl)pyridin-3-yl)-N-(3-methyl-4-(1,5,7-trimethyl-3,7-diazabicyclo[3.3.1]nonan-3-yl)phenyl)pyrimidin-2-amine] the figure was less than 1000 nM; with `Cc1cc(Nc2nccc(-c3ccc(N4C[C@@H]5C[C@H]4CN5c4ccc(F)cc4)nc3)n2)ccc1N1CCN(C)CC1` [compound 13, 4-(6-((1S,4S)-5-(4-fluorophenyl)-2,5-diazabicyclo-[2.2.1]-heptan-2-yl)pyridin-3-yl)-N-(3-methyl-4-(4-methyl-piperazin-1-yl)phenyl)-pyrimidin-2-amine], less than 1000 nM; with `Cc1cc(Nc2nccc(-c3ccc4nccn4c3)n2)ccc1N1CCN2CCC1C2` (stereo not shown) [compound 123, 4-(imidazo[1,2-a]pyridin-6-yl)-N-(3-methyl-4-(1,4-diazabicyclo[3.2.1]octan-4-yl)phenyl)pyrimidin-2-amine], less than 1000 nM.

As to `Cc1cc(Nc2nccc(-c3ccc(N4CCOCC4)nc3)n2)ccc1N1C[C@H]2C[C@@H]1CN2C` [compound 72, 4-(6-(morpholin-4-yl)pyridin-3-yl)-N-(3-methyl-4-((1R,4R)-5-methyl-2,5-diazabicyclo[2.2.1]heptan-2-yl)phenyl)pyrimidin-2-amine], the GI50 was less than 1000 nM. On the same count and under the same terms, with `CN1C[C@@H]2C[C@H]1CN2c1ccc(Nc2nccc(-c3ccc(NCCN4CCOCC4)nc3)n2)cc1` [compound 69, 4-(6-(2-(morpholin-4-yl)ethyl)aminopyridin-3-yl)-N-(4-((1S,4S)-5-methyl-2,5-diazabicyclo[2.2.1]heptan-2-yl)phenyl)pyrimidin-2-amine] the figure was 1000 to 10000 nM.

Regarding `Cc1cc(Nc2nccc(-c3cnc(N4CCOCC4)nc3)n2)ccc1N1C[C@@H]2C[C@H]1CN2C` [compound 41, 4-(2-(morpholin-4-yl)pyrimidin-5-yl)-N-(3-methyl-4-((1S,4S)-5-methyl-2,5-diazabicyclo[2.2.1]heptan-2-yl)phenyl)pyrimidin-2-amine], the GI50 was less than 1000 nM.

Take `CCOC(C)c1ccc(-c2ccnc(Nc3ccc(N4C[C@@H]5C[C@H]4CN5C)c(F)c3)n2)cc1` (stereo partly drawn) [compound 182, 4-(4-(1-ethoxyethyl)phenyl)-N-(3-fluoro-4-((1S,4S)-5-methyl-2,5-diazabicyclo[2.2.1]heptan-2-yl)phenyl)pyrimidin-2-amine]: the GI50 lay in the range of 1000 to 10000 nM. Same read-out and setting: in the case of `Cc1cc(Nc2nccc(-c3cnc4c(c3)OCCN4)n2)ccc1N1C[C@@H]2C[C@H]1CN2C` [compound 86, 4-(3,4-dihydro-2H-pyrido[3,2-b][1,4]oxazin-7-yl)-N-(3-methyl-4-((1S,4S)-5-methyl-2,5-diazabicyclo[2.2.1]heptan-2-yl)phenyl)pyrimidin-2-amine] it was less than 1000 nM; in that of `Cc1cc(Nc2nccc(-c3ccc(NS(C)(=O)=O)nc3)n2)ccc1N1C[C@@H]2C[C@H]1CN2C` [compound 151, 4-(6-(methylsulfonylamino)pyridin-3-yl)-N-(3-methyl-4-((1S,4S)-5-methyl-2,5-diazabicyclo[2.2.1]heptan-2-yl)phenyl)pyrimidin-2-amine], 1000 to 10000 nM.
